Experimental data published in US4497806A, “Triorganotin compounds, antifungal and antibacterial compositions containing same, and method of using same” (priority 1983, dated 1985).

How the values were obtained:
Staphylococcus aureus = experiment: Antibacterial activity, agar growth inhibition; type: cell-based
Protocol: The antibacterial activity of Compounds A-E was investigated by means of incorporating the compounds into sterile tryptic soy agar (Difco) at levels of 100, 10, and 1 μg/ml. The agar was also […] with a 1:100 dilution of an 18-hour old culture of the desired bacterial species in sterile distilled water. The plates were incubated for 24 hours at 37° C. with each bacterial strain. Observations of bacterial growth inhibition were made following the appropriate incubation period.
(§1) A solvent control was included in all evaluations, as were growth controls for all bacteria species.
Comparative compounds 1-5 above were employed for comparison purposes. These compounds were tested for antibacterial activity in the same manner as the triorganotin 5-nitro-2-furoates of the present invention.
(§2) All of the bacteria tested were obtained from the culture collection of the Department of Biological Sciences, St. John's University.
The ability of Compound B to inhibit the growth of other Gram-positive bacteria, using the same test procedures as described for the antibacterial activity determined in Table III above, is illustrated in Table IV below.

Bacillus megaterium = experiment: Antibacterial activity, agar growth inhibition; type: cell-based; details: Gram-positive
Protocol: (§3) The agar was also needed with a 1:100 dilution of an 18-hour old culture of the desired bacterial species in sterile distilled water. The plates were incubated for 24 hours at 37° C. with each bacterial strain. Observations of bacterial growth inhibition were made following the appropriate incubation period.
as §1
(§4) These compounds were tested for antibacterial activity in the same manner as the triorganotin 5-nitro-2-furoates of the present invention.
as §2

Escherichia coli = experiment: Antibacterial activity, agar growth inhibition; type: cell-based; details: Gram-negative, 24 hours at 37° C.
Protocol: as §3, §1, §4, §2

Pseudomonas aeruginosa = experiment: Antibacterial activity, agar growth inhibition; type: cell-based; details: Gram-negative, 24 hours at 37° C.
Protocol: as §3, §1, §4, §2

[1] = test system: Trichoderma viride (ATCC 8678); experiment: Antifungal activity, agar plate growth inhibition; type: cell-based; details: 14 days
Protocol: (§5) Dilutions of the sterile solutions were prepared and added to liquified potato dextrose agar (Difco) to yield final concentrations of 100, 10 and 1 μg/ml. The agar, containing the appropriate organotin compound, was poured into sterile petri dishes and allowed to solidify over night. The agar surface was inoculated centrally with a 2 mm^2 portion of the growth from a ten-day-old culture of each fungus of the group consisting of Aspergillus niger, Chaetomium globosum, Cladosporium carpophilum, Fusarium moniliforme, Myrotheium verrucaria, Penicillium notatum, Rhizopus stolonifer, Trichoderma viride and Trichophyton mentagrophytes, or from a two-day-old culture of Saccharomyces cerevisiae. Inoculated plates were incubated for 14 days and observations of growth inhibition were made by measuring the diameters of the colonies present on the agar surface.
(§6) A solvent was included in all evaluations, as were growth controls for all fungal species.
(§7) The following compounds were tested for comparative purposes: [drawing 6] These compounds were tested for antifungal activity in the same manner as the triorganotin 5-nitro-2-furoates of the present invention.

[2] = test system: Saccharomyces cerevisiae (ATCC 9896); experiment: Antifungal activity, agar plate growth inhibition; type: cell-based; details: 14 days
Protocol: as §5, §6, §7

[3] = test system: Penicillium notatum (ATCC 9179); experiment: Antifungal activity, agar plate growth inhibition; type: cell-based; details: 14 days
Protocol: as §5, §6, §7

[4] = test system: Aspergillus niger (ATCC 12845); experiment: Antifungal activity, agar plate growth inhibition; type: cell-based; details: 14 days
Protocol: as §5, §6, §7

[5] = test system: Chaetomium globosum (ATCC 6205); experiment: Antifungal activity, agar plate growth inhibition; type: cell-based; details: 14 days
Protocol: as §5, §6, §7

[6] = test system: Trichophyton mentagrophytes (ATCC 9129); experiment: Antifungal activity, agar plate growth inhibition; type: cell-based; details: 14 days
Protocol: as §5, §6, §7

[7] = test system: Rhizopus stolonifer (ATCC 10404); experiment: Antifungal activity, agar plate growth inhibition; type: cell-based; details: 14 days
Protocol: as §5, §6, §7

[8] = test system: Fusarium moniliforme (ATCC 10052); experiment: Antifungal activity, agar plate growth inhibition; type: cell-based; details: 14 days
Protocol: as §5, §6, §7

[9] = test system: Myrothecium verrucaria (ATCC 9095); experiment: Antifungal activity, agar plate growth inhibition; type: cell-based; details: 14 days
Protocol: as §5, §6, §7

[10] = test system: Cladosporium carpophilium (ATCC 12117); experiment: Antifungal activity, agar plate growth inhibition; type: cell-based, Cladosporium carpophilum; details: 14 days
Protocol: as §5, §6, §7

test fungi = experiment: Antifungal activity, summary over the 10 test fungi; type: cell-based
Protocol: as §5, §6, §7

Triphenyltin 5-nitro-2-furoate [Compound A]
minimum concentration for complete growth inhibition (Staphylococcus aureus; Gram-positive): 1 µg/mL | activity relative to Comparative Compounds 2, 4 and 5 (Staphylococcus aureus; towards Staphylococcus aureus): identical | minimum concentration for complete growth inhibition (Bacillus megaterium): 1 µg/mL | growth inhibition (Escherichia coli; 1 μg/ml): - | growth inhibition (Escherichia coli; 10 μg/ml): - | growth inhibition (Escherichia coli; 100 μg/ml): - | growth inhibition (Pseudomonas aeruginosa; 1 μg/ml): - | growth inhibition (Pseudomonas aeruginosa; 10 μg/ml): - | growth inhibition (Pseudomonas aeruginosa; 100 μg/ml): - | growth inhibition ([1]; 1 μg/ml): + | growth inhibition ([1]; 10 μg/ml): + | growth inhibition ([1]; 100 μg/ml): + | growth inhibition ([2]; 1 μg/ml): - | growth inhibition ([2]; 10 μg/ml): + | growth inhibition ([2]; 100 μg/ml): + | growth inhibition ([3]; 1 μg/ml): + | growth inhibition ([3]; 10 μg/ml): 2+ | growth inhibition ([3]; 100 μg/ml): 2+ | growth inhibition ([4]; 1 μg/ml): + | growth inhibition ([4]; 10 μg/ml): 2+ | growth inhibition ([4]; 100 μg/ml): 2+ | growth inhibition ([5]; 1 μg/ml): + | growth inhibition ([5]; 10 μg/ml): + | growth inhibition ([5]; 100 μg/ml): + | growth inhibition ([6]; 1 μg/ml): + | growth inhibition ([6]; 10 μg/ml): 2+ | growth inhibition ([6]; 100 μg/ml): 2+ | growth inhibition ([7]; 1 μg/ml): + | growth inhibition ([7]; 10 μg/ml): + | growth inhibition ([7]; 100 μg/ml): + | growth inhibition ([8]; 1 μg/ml): + | growth inhibition ([8]; 10 μg/ml): + | growth inhibition ([8]; 100 μg/ml): + | growth inhibition ([9]; 1 μg/ml): + | growth inhibition ([9]; 10 μg/ml): 2+ | growth inhibition ([9]; 100 μg/ml): 2+ | growth inhibition ([10]; 1 μg/ml): 2+ | growth inhibition ([10]; 10 μg/ml): 2+ | growth inhibition ([10]; 100 μg/ml): 2+ | partial growth inhibition of test fungi (in words) (test fungi; 1 μg/ml): partially inhibiting the growth of all of the test fungi, except Saccharomyces cerevisiae | number of test fungi with growth completely inhibited (test fungi; 10 μg/ml): 5 of the 10 test fungi | antifungal activity, rank among the triorganotin 5-nitro-2-furoates (test fungi; among Compounds A-E): second best antifungal agent
